For this series, the system named is CCRIS mutagenicity, Ames/micronucleus/aberration tests. Kind of series: CCRIS mutagenicity studies.
Where [1] appears, read: Test System: AMES SALMONELLA TYPHIMURIUM, Strain/Indicator: TA100, Metabolic Activation: RAT, LIVER, S-9, AROCLOR 1254.
The mark [2] stands for this setting: Test System: AMES SALMONELLA TYPHIMURIUM, Strain/Indicator: TA98, Metabolic Activation: NONE, Method: STANDARD PLATE.
Setting [3] is: Test System: AMES SALMONELLA TYPHIMURIUM, Strain/Indicator: TA1537, Metabolic Activation: NONE, Method: STANDARD PLATE.
[4] abbreviates: Test System: AMES SALMONELLA TYPHIMURIUM, Strain/Indicator: TA1538, Metabolic Activation: NONE, Method: STANDARD PLATE.
[5] abbreviates: Test System: AMES SALMONELLA TYPHIMURIUM, Strain/Indicator: TA100, Metabolic Activation: NONE, Method: PREINCUBATION
The mark [6] stands for this setting: Test System: AMES SALMONELLA TYPHIMURIUM, Strain/Indicator: TA98, Metabolic Activation: NONE, Method: PREINCUBATION

Each structure is given as a SMILES string. Active and inactive are the calls of the source. The rule behind the calls is not given here.

For `CCSC(=O)N1CCCCCC1`, the mutagenic call by setting is: (Test System: AMES SALMONELLA TYPHIMURIUM, Strain/Indicator: TA98, Metabolic Activation: NONE) “inactive; negative”; (Test System: AMES SALMONELLA TYPHIMURIUM, Strain/Indicator: TA98, Metabolic Activation: RAT, LIVER, S-9, AROCLOR 1254) “inactive; negative”; (Test System: AMES SALMONELLA TYPHIMURIUM, Strain/Indicator: TA100, Metabolic Activation: NONE) “inactive; negative”; under setting [1], “inactive; negative”; (Test System: AMES SALMONELLA TYPHIMURIUM, Strain/Indicator: TA102, Metabolic Activation: NONE) “inactive; negative”; (Test System: AMES SALMONELLA TYPHIMURIUM, Strain/Indicator: TA102, Metabolic Activation: RAT, LIVER, S-9, AROCLOR 1254) “inactive; negative”. For the same molecule, the mutagenic call by setting is: (Test System: AMES SALMONELLA TYPHIMURIUM, Strain/Indicator: TA1535, Metabolic Activation: NONE) “inactive; negative”; (Test System: AMES SALMONELLA TYPHIMURIUM, Strain/Indicator: TA1535, Metabolic Activation: RAT, LIVER, S-9, AROCLOR 1254) “inactive; negative”; (Test System: AMES SALMONELLA TYPHIMURIUM, Strain/Indicator: TA1537, Metabolic Activation: NONE) “inactive; negative”; (Test System: AMES SALMONELLA TYPHIMURIUM, Strain/Indicator: TA1537, Metabolic Activation: RAT, LIVER, S-9, AROCLOR 1254) “inactive; negative”.
As for `Nc1cc2[nH]c3ccccc3c2cc1[N+](=O)[O-]`, the mutagenic call runs as follows: under setting [2], “inactive; negative”; (Test System: AMES SALMONELLA TYPHIMURIUM, Strain/Indicator: TA98, Metabolic Activation: RAT, LIVER, S-9, PHENOBARBITAL, Method: STANDARD PLATE) “active; positive”; (Test System: AMES SALMONELLA TYPHIMURIUM, Strain/Indicator: TA100, Metabolic Activation: NONE, Method: STANDARD PLATE) “inactive; negative”; (Test System: AMES SALMONELLA TYPHIMURIUM, Strain/Indicator: TA100, Metabolic Activation: RAT, LIVER, S-9, PHENOBARBITAL, Method: STANDARD PLATE) “active; positive”; under setting [3], “inactive; negative”; (Test System: AMES SALMONELLA TYPHIMURIUM, Strain/Indicator: TA1537, Metabolic Activation: RAT, LIVER, S-9, PHENOBARBITAL, Method: STANDARD PLATE) “active; positive”. Further, the mutagenic call reads like this: under setting [4], “inactive; negative”; (Test System: AMES SALMONELLA TYPHIMURIUM, Strain/Indicator: TA1538, Metabolic Activation: RAT, LIVER, S-9, PHENOBARBITAL, Method: STANDARD PLATE) “active; positive”; (Test System: AMES SALMONELLA TYPHIMURIUM, Strain/Indicator: TA1977, Metabolic Activation: NONE, Method: STANDARD PLATE) “inactive; negative”; (Test System: AMES SALMONELLA TYPHIMURIUM, Strain/Indicator: TA1977, Metabolic Activation: RAT, LIVER, S-9, PHENOBARBITAL, Method: STANDARD PLATE) “inactive; negative”.
Regarding `BrCC(Br)c1ccccc1` (stereo not given), the mutagenic call is, setting by setting: (Test System: AMES SALMONELLA TYPHIMURIUM, Strain/Indicator: TA100/NG-57, Metabolic Activation: CELL PRETREATMENT WITH GLUTATHIONE, Method: PREINCUBATION) “active; positive”; (Test System: AMES SALMONELLA TYPHIMURIUM, Strain/Indicator: TA100/NG-57, Metabolic Activation: NONE, Method: PREINCUBATION) “active; positive”; (Test System: AMES SALMONELLA TYPHIMURIUM, Strain/Indicator: TA100, Metabolic Activation: CELL PRETREATMENT WITH GLUTATHIONE, Method: PREINCUBATION) “active; positive”; under setting [5], “active; positive”; (Test System: AMES SALMONELLA TYPHIMURIUM, Strain/Indicator: TA100, Metabolic Activation: NONE, Method: SPOT TEST) “active; positive”.
Take `COC1=CC(=O)O[C@@H](CCc2ccc3c(c2)OCO3)C1`: under “Test System: Mouse lymphoma cells, Strain/Indicator: L5178Y ( tk+/tk-), Metabolic Activation: Human, Liver, S-9, Method: Suspension/plate”, the mutagenic call is “inactive; negative”.
Regarding `Cc1cccc2cc3c4c(cccc4c12)-c1ccccc1-3`, the mutagenic call under setting [1] is “active; positive”.
Regarding `CCc1c(Br)c(Br)c(Br)c(Br)c1Br`, the mutagenic call reads like this: (Test System: AMES SALMONELLA TYPHIMURIUM, Strain/Indicator: TA98, Metabolic Activation: HAMSTER, LIVER, S-9, AROCLOR 1254 (10%), Method: PREINCUBATION) “inactive; negative”; under setting [6], “inactive; negative”; (Test System: AMES SALMONELLA TYPHIMURIUM, Strain/Indicator: TA98, Metabolic Activation: RAT, LIVER, S-9, AROCLOR 1254 (10%), Method: PREINCUBATION) “inactive; negative”; (Test System: AMES SALMONELLA TYPHIMURIUM, Strain/Indicator: TA100, Metabolic Activation: HAMSTER, LIVER, S-9, AROCLOR 1254 (10%), Method: PREINCUBATION) “inactive; negative”; under setting [5], “inactive; negative”; (Test System: AMES SALMONELLA TYPHIMURIUM, Strain/Indicator: TA100, Metabolic Activation: RAT, LIVER, S-9, AROCLOR 1254 (10%), Method: PREINCUBATION) “inactive; negative”. Moreover, the mutagenic call (Test System: AMES SALMONELLA TYPHIMURIUM, Strain/Indicator: TA1535, Metabolic Activation: HAMSTER, LIVER, S-9, AROCLOR 1254 (10%), Method: PREINCUBATION) is “inactive; negative”; the mutagenic call (Test System: AMES SALMONELLA TYPHIMURIUM, Strain/Indicator: TA1535, Metabolic Activation: NONE, Method: PREINCUBATION) was “inactive; negative”; the mutagenic call (Test System: AMES SALMONELLA TYPHIMURIUM, Strain/Indicator: TA1535, Metabolic Activation: RAT, LIVER, S-9, AROCLOR 1254 (10%), Method: PREINCUBATION) is “inactive; negative”; the mutagenic call (Test System: AMES SALMONELLA TYPHIMURIUM, Strain/Indicator: TA1537, Metabolic Activation: HAMSTER, LIVER, S-9, AROCLOR 1254 (10%), Method: PREINCUBATION) is “inactive; negative”; the mutagenic call (Test System: AMES SALMONELLA TYPHIMURIUM, Strain/Indicator: TA1537, Metabolic Activation: NONE, Method: PREINCUBATION) was “inactive; negative”; the mutagenic call (Test System: AMES SALMONELLA TYPHIMURIUM, Strain/Indicator: TA1537, Metabolic Activation: RAT, LIVER, S-9, AROCLOR 1254 (10%), Method: PREINCUBATION) was “inactive; negative”.
With `COc1ccccc1/C=C/C=C(/C#N)c1ccc(Br)cc1`, the mutagenic call (Test System: AMES SALMONELLA TYPHIMURIUM, Strain/Indicator: TA97A, Metabolic Activation: NONE, Method: STANDARD PLATE) was “active; positive”.
Consider `COc1c(O)cc(Cl)cc1Cl`, for which, where the note is “Test System: CHINESE HAMSTER V-79, Strain/Indicator: V-79/6-THIOGUANINE, Metabolic Activation: NONE, Method: STANDARD PLATE”, the mutagenic call is “inactive; negative”.
Take `Nc1nc(Cl)nc2c1ncn2[C@H]1C[C@H](O)[C@@H](CO)O1`: the mutagenic call (End Point: In vivo chromosomal aberrations, Test System: Bone marrow cells, Species: Mouse, Strain/Sex: Balb/C/Male and female, Route: Intraperitoneal) is “inactive; negative”.
For the molecule `COC(=O)[C@H]1O[C@@H]1c1ccccc1`, the mutagenic call was “inactive; negative” under setting [2]; “inactive; negative” (Test System: AMES SALMONELLA TYPHIMURIUM, Strain/Indicator: TA98, Metabolic Activation: RAT, LIVER, S-9, AROCLOR 1254, Method: STANDARD PLATE); “inactive; negative” (Test System: AMES SALMONELLA TYPHIMURIUM, Strain/Indicator: TA100, Metabolic Activation: RAT, LIVER, S-9, AROCLOR 1254, Method: STANDARD PLATE); “inactive; negative” (Test System: AMES SALMONELLA TYPHIMURIUM, Strain/Indicator: TA1535, Metabolic Activation: NONE, Method: STANDARD PLATE); “inactive; negative” (Test System: AMES SALMONELLA TYPHIMURIUM, Strain/Indicator: TA1535, Metabolic Activation: RAT, LIVER, S-9, AROCLOR 1254, Method: STANDARD PLATE); “inactive; negative” under setting [3]. Also, the mutagenic call (Test System: AMES SALMONELLA TYPHIMURIUM, Strain/Indicator: TA1537, Metabolic Activation: RAT, LIVER, S-9, AROCLOR 1254, Method: STANDARD PLATE) was “inactive; negative”; the mutagenic call under setting [4] is “inactive; negative”; the mutagenic call (Test System: AMES SALMONELLA TYPHIMURIUM, Strain/Indicator: TA1538, Metabolic Activation: RAT, LIVER, S-9, AROCLOR 1254, Method: STANDARD PLATE) was “inactive; negative”.
For the molecule `Cc1cc(O)c2c(c1O)C(=O)c1ccccc1C2=O`, the mutagenic call was “inactive; negative” under setting [6]; “active; positive” (Test System: AMES SALMONELLA TYPHIMURIUM, Strain/Indicator: TA98, Metabolic Activation: RAT, LIVER, S-9, PCB, Method: PREINCUBATION); “inactive; negative” under setting [5]; “active; positive” (Test System: AMES SALMONELLA TYPHIMURIUM, Strain/Indicator: TA100, Metabolic Activation: RAT, LIVER, S-9, PCB, Method: PREINCUBATION).
